The nature of data set [1]: Solubility of extractant in dense carbon dioxide. Type of data set: physicochemical. Particulars: 70° C. and 120 bar.
The conditions of data set [2]: cited from earlier work; for solubility relative to β-carotene: qualitative comparison.

This is an account of results in patent US6407306B1, “Process for extracting carotenes from carotene-containing materials” (priority 2000, dated 2002).

For the molecule `O=CN1CCOCC1` [4-formylmorpholine], the “solubility in carbon dioxide” value in data set [1] came to 9 wt. %.

In the case of `CC1=C(/C=C/C(C)=C/C=C/C(C)=C/C=C/C=C(C)/C=C/C=C(C)/C=C/C2=C(C)CCCC2(C)C)C(C)(C)CCC1` [β-Carotene], the solubility in benzene in data set [2] (benzene, 19° C.) is recorded as 0.35 grams per 100 cm^3 of solvent. In addition, the “solubility in carbon disulfide” value in data set [2] (carbon disulfide, 19° C.) is reported as 5.5 grams per 100 cm^3 of solvent. In data set [2] (ethanol, 19° C.), the solubility in ethanol is reported as 0.008 grams per 100 cm^3 of solvent. Moreover, the “solubility in petroleum ether” value in data set [2] (petroleum ether, 19° C.) is 0.1 grams per 100 cm^3 of solvent.

Regarding `CC(C)=CCC/C(C)=C/C=C/C(C)=C/C=C/C(C)=C/C=C/C=C(C)/C=C/C=C(C)/C=C/C1=C(C)CCCC1(C)C` [γ-Carotene], the “solubility relative to β-carotene” value in data set [2] is given as “more readily soluble than β-carotene”.

Consider `CC1=CCCC(C)(C)C1/C=C/C(C)=C/C=C/C(C)=C/C=C/C=C(C)/C=C/C=C(C)/C=C/C1=C(C)CCCC1(C)C` (stereo not drawn) [α-Carotene], for which, in data set [2], the “solubility relative to β-carotene” value is recorded as “more readily soluble than β-carotene”.
